Tests used:
[1] = target: T1, AAH2 (toxoplasmic aromatic amino acid hydroxylase 2), catalytic domain (Toxoplasma gondii, UniProt S8FBW5); assay: coupled NADH oxidation assay (dihydropteridine reductase), […] nm; fit to competitive inhibition equation; assay type: biochemical; conditions: read-out: KI ^c
T1 construct: catalytic domain, pET-45b (His-tag), expressed in E. coli BL21 GOLD (DE3) pLysS, cobalt resin
T1 sequence (S8FBW5 156-565): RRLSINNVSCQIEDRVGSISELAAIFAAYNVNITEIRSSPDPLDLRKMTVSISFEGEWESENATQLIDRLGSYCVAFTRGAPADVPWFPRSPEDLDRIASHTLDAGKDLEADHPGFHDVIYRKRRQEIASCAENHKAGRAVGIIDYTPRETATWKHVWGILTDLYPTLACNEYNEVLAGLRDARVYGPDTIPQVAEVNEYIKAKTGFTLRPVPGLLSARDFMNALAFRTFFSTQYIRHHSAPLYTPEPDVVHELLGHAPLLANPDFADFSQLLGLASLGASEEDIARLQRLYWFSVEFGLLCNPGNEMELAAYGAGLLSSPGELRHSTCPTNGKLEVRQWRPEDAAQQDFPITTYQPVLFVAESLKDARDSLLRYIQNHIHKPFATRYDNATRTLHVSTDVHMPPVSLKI

[2] = target: T2, AAH1 (toxoplasmic aromatic amino acid hydroxylase 1), catalytic domain (Toxoplasma gondii, UniProt S8G872); assay: as above; assay type: biochemical; conditions: read-out: KI ^c
T2 construct: catalytic domain, pET-45b (His-tag), expressed in E. coli BL21 GOLD (DE3) pLysS, cobalt resin
T2 sequence (S8G872 1-390 limits assumed): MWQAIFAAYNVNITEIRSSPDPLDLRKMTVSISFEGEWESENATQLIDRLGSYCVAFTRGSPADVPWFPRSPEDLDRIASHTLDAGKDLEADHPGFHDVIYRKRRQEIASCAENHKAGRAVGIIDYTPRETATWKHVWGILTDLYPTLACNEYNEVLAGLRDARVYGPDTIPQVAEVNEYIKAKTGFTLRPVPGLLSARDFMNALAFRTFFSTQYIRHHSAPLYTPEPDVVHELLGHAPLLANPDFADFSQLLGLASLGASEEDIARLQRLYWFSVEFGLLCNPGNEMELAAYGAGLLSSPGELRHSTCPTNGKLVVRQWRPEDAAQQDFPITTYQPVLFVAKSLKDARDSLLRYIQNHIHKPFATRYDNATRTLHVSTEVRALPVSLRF

[3] = target: T2, AAH1 (toxoplasmic aromatic amino acid hydroxylase 1), catalytic domain; assay: DARTS (Pronase protection, Western blot); assay type: binding; conditions: 10 µM compound, and dose-dependent; room temperature
[4] = substrate: N[C@@H](Cc1ccc(O)cc1)C(=O)O; assay: purified protein; assay type: biochemical, Toxoplasma gondii; conditions: no inhibitor, 500 µM (6R)-BH4, 500 µM NADH, 10 µM ferrous ammonium sulfate, pH 7.5, 32 °C

Molecule	Ki [1] [nM]	Ki [2] [nM]	DARTS (Pronase protection, Western blot) [3]	Km [4] [µM]
Cc1nc[nH]c1C(=O)NNC(=S)Nc1cccc(I)c1 [6a]	3230	1260	Proteolysis of AAH1 by Pronase was clearly inhibited by the presence of 2a and 6a	–
Cc1nc[nH]c1C(=O)NNC(=S)Nc1ccc([N+](=O)[O-])cc1 [2a]	3690	1490	Proteolysis of AAH1 by Pronase was clearly inhibited by the presence of 2a and 6a	–
AAH2 (toxoplasmic aromatic amino acid hydroxylase 2), catalytic domain (Toxoplasma gondii ME49) (protein, catalytic domain, pET-45b (His-tag), expressed in E. coli BL21 GOLD (DE3) pLysS, cobalt resin) RRLSINNVSCQIEDRVGSISELAAIFAAYNVNITEIRSSPDPLDLRKMTVSISFEGEWESENATQLIDRLGSYCVAFTRGAPADVPWFPRSPEDLDRIASHTLDAGKDLEADHPGFHDVIYRKRRQEIASCAENHKAGRAVGIIDYTPRETATWKHVWGILTDLYPTLACNEYNEVLAGLRDARVYGPDTIPQVAEVNEYIKAKTGFTLRPVPGLLSARDFMNALAFRTFFSTQYIRHHSAPLYTPEPDVVHELLGHAPLLANPDFADFSQLLGLASLGASEEDIARLQRLYWFSVEFGLLCNPGNEMELAAYGAGLLSSPGELRHSTCPTNGKLEVRQWRPEDAAQQDFPITTYQPVLFVAESLKDARDSLLRYIQNHIHKPFATRYDNATRTLHVSTDVHMPPVSLKI	–	–	–	71
AAH1 (toxoplasmic aromatic amino acid hydroxylase 1), catalytic domain (Toxoplasma gondii ME49) (protein, catalytic domain, pET-45b (His-tag), expressed in E. coli BL21 GOLD (DE3) pLysS, cobalt resin) MWQAIFAAYNVNITEIRSSPDPLDLRKMTVSISFEGEWESENATQLIDRLGSYCVAFTRGSPADVPWFPRSPEDLDRIASHTLDAGKDLEADHPGFHDVIYRKRRQEIASCAENHKAGRAVGIIDYTPRETATWKHVWGILTDLYPTLACNEYNEVLAGLRDARVYGPDTIPQVAEVNEYIKAKTGFTLRPVPGLLSARDFMNALAFRTFFSTQYIRHHSAPLYTPEPDVVHELLGHAPLLANPDFADFSQLLGLASLGASEEDIARLQRLYWFSVEFGLLCNPGNEMELAAYGAGLLSSPGELRHSTCPTNGKLVVRQWRPEDAAQQDFPITTYQPVLFVAKSLKDARDSLLRYIQNHIHKPFATRYDNATRTLHVSTEVRALPVSLRF	–	–	–	30

Reference: article PMC8955734, “4-Arylthiosemicarbazide Derivatives as Toxoplasmic Aromatic Amino Acid Hydroxylase Inhibitors and Anti-inflammatory Agents” (International Journal of Molecular Sciences, 2022)
